Laboratory results published in US10729636B2, “Compositions comprising peptide [sequence]” (NURITAS LIMITED, priority 2016, dated 2020).

What was measured:
[1] = tested on: AMPK pathway; experiment: Phospho-AMPK alpha / Phospho-ACC / Phospho-Akt1 ELISA (mechanism of action); assay type: cell-based; details: phospho-ELISAs on cell lysates; FIGS. 12-14
Protocol: This set of experiments was undertaken to understand the mechanism of action of a peptide of SEQ ID NO. 1.
Phospho-Acetyl-CoA Carboxylase (Ser79) Sandwich ELISA Kit is a solid phase sandwich enzyme-linked immunosorbent assay (ELISA) that detects endogenous levels of acetyl-CoA carboxylase (ACC) when phosphorylated at Ser79. A phospho-ACC (Ser79) rabbit antibody was coated onto the microwells. After incubation with cell lysates, phospho-ACC protein was captured by the coated antibody. Following extensive washing, an ACC mouse detection mAb was added to detect the captured ACC protein. Anti-mouse IgG, HRP-linked antibody was then used to recognize the bound detection antibody. […] The magnitude of the absorbance for the developed color was proportional to the quantity of ACC phosphorylated at Ser79.
Phospho-Akt1 (Ser473) Sandwich ELISA Kit is a solid phase sandwich enzyme-linked immunosorbent assay (ELISA) that detects endogenous levels of phospho-Akt1 (Ser473) protein. […] The magnitude of absorbance for this developed colour is proportional to the quantity of phospho-Akt1 (Ser473) protein.
Phospho-AMPKα (Thr172) Sandwich ELISA Kit is a solid phase sandwich enzyme-linked immunosorbent assay (ELISA) that detects endogenous levels of AMPKα when phosphorylated at Thr172. […] The magnitude of the absorbance for this developed colour was proportional to the quantity of AMPKα phosphorylated at Thr172. […]

[2] = tested on: HSkMC cells; experiment: QPCR on specific genes of interest; assay type: cell-based; details: 0.5 ug/ml, normalised by B2M, over control
Protocol: A volume of 2 ml of HSkMC cells were seeded in a 6 cm plate, pre-coated with collagen, at a concentration of 2×10^5 cells. Cells were allowed to adhere overnight at 37° C. 5% CO2 and the following day the growth media was replaced with 2 ml of cell differentiation media and returned to the incubator at 37° C. 5% CO2. The cell differentiation media was changed every 2 days for a period of 6 days, until the HSkMC cells were fully differentiated into myotubes. On day 7, the cell differentiation media was replaced with 2 ml of basal media and starved overnight at 37° C. 5% CO2.
On the day of the experiment, the starvation media was removed and replaced with 2 ml of basal media containing 0.5 ug/ml of SEQUENCE ID NO: 1. Untreated cells were run in parallel. The cells were incubated in this treatment for a period of 20 min at 37° C. 5% CO2, at which point the treatment media was removed and the cells were scraped in 1 ml of PBS. The cell suspension was pelleted in a microcentrifuge at 1500 rpm for 5 min, and the supernatant was removed. The cells were immediately flash frozen in liquid nitrogen and transferred to a −80° C. freezer for storage until dispatched to CROs.
Quantitative PCR was performed using a TaqMan probe based method, where target mRNA expression was quantified relative to the expression of the B2M housekeeping gene. A master mix containing primer/probe and Taqman® Gene Expression Master Mix (ABI Biosystems, CA, USA) was added to 1 μl of cDNA template. A final volume of 10 μl was pipetted into a well of a 96-well Lightcycler plate (Sarstedt, Nümbrecht, Germany) in duplicate and real time PCR was performed on a Roche Lightcycler 96 (Roche Diagnostics, Basal, Switzerland) real time thermal cycler. The threshold cycle (Ct) for each well was calculated using the instrument software. Data analysis was based on the ΔΔCt method with raw data normalised by the B2M housekeeping gene included on the plate. Results are expressed as fold change over control.
QPCR results (methods of treatment remains the same; concentration of SEQ ID 1 remains 0.5 ug/ml)

[3] = tested on: KK.Cg-Ay/J (KKAY mouse); experiment: Blood glucose management in a mouse model of obesity and diabetes; assay type: in vivo; details: KKAY mice; 100 μM/kg subcutaneous injection; after 7 days of treatment
Protocol: • Species—KK.Cg-Ay/J (KKAY mouse) • Source—Jackson Laboratories • Age—12 weeks of age • Gender—Male • Randomization—Based on baseline fasting glucose Housing and Feeding: • Acclimation—Not less than five days • Housing • Mice will be housed on a 12 hr light/dark cycle • No more than 4 mice per cage depending on size • Ventilated cage rack system • Diet—Standard rodent chow and water ad libitum Design: • Route of administration:—Subcutaneous injection • Dose Volume(s)—10 mL/kg • Dose Levels—Test articles: 100 μM/kg, Metformin: 250 mg/kg • Number per group—10 • Total number of animals—30

[4] = tested on: HACAT cells; experiment: Glucose uptake (2-DG), HACAT; assay type: cell-based; details: compared with untreated control, FIG. 5
Protocol: Glucose uptake in skeletal muscle cells was measured using 2-deoxyglucose (2-DG). 2-DG is taken up by glucose transporters and metabolized to 2-DG-6-phosphate (2-DG6P). The amount of accumulated non-metabolized 2-DG6P is proportional to glucose uptake by cells.
Following stimulation, the cells were incubated with 10 μl/well of 2-DG solution for 40 min and glucose uptake was measured using the ‘PrismColor Glucose Uptake Assay Kit’ (Molecutools), all steps were carried out according to the manufacturer's instructions. The experiment was repeated using HACAT cells.

## WKDEAGKPLVK [SEQ ID NO. 1]
[1]
  mechanism of action (pathway): working through the AMPK pathway
[2]; ACVR2B
  Fold change: 0.48 fold
[2]; Adiponectin
  Fold change: 1.07 fold
[2]; COX4I1
  Fold change: 0.85 fold
[2]; FBXO32
  Fold change: 1.00 fold
[2]; GLUT4
  Fold change: 1.95 fold
[2]; HSPA2
  Fold change: 0.67 fold
[2]; LEPR
  Fold change: 1.20 fold
[2]; Leptin
  Fold change: 0.51 fold
[2]; MSTN
  Fold change: 0.17 fold
[2]; MYOG
  Fold change: 0.70 fold
[2]; NRF1
  Fold change: 0.54 fold
[2]; PPARGC1A
  Fold change: 0.69 fold
[2]; PRKAG3
  Fold change: 0.35 fold
[2]; SIRT
  Fold change: 0.41 fold
[2]; TRIM63
  Fold change: 0.70 fold
[2]; UQCRB
  Fold change: 2.56 fold
[3]
  blood glucose: significantly reduced
[4]
  glucose uptake: increase
